# In ChEMBL document CHEMBL4715697, “Synthesis and biological activity of benzamide DNA minor groove binders” (2016):
# Columns and labels:
# Format in all cases: functional
# Details in all cases: read-out: Activity
# [1] = tested on: HL-60(TB); test: Growth inhibition of human HL-60(TB) cells assessed as cell growth at 10 uM incubated for 48 hrs by sulforhodamine B assay relative to control
# [2] = tested on: K562; test: Growth inhibition of human K562 cells assessed as cell growth at 10 uM incubated for 48 hrs by sulforhodamine B assay relative to control
# [3] = tested on: MOLT-4; test: Growth inhibition of human MOLT-4 cells assessed as cell growth at 10 uM incubated for 48 hrs by sulforhodamine B assay relative to control
# [4] = tested on: A549; test: Growth inhibition of human A549/ATCC cells assessed as cell growth at 10 uM incubated for 48 hrs by sulforhodamine B assay relative to control
# [5] = tested on: EKVX; test: Growth inhibition of human EKVX cells assessed as cell growth at 10 uM incubated for 48 hrs by sulforhodamine B assay relative to control
# [6] = tested on: HOP-62; test: Growth inhibition of human HOP-62 cells assessed as cell growth at 10 uM incubated for 48 hrs by sulforhodamine B assay relative to control
# [7] = tested on: NCI-H226; test: Growth inhibition of human NCI-H226 cells assessed as cell growth at 10 uM incubated for 48 hrs by sulforhodamine B assay relative to control
# [8] = tested on: NCI-H23; test: Growth inhibition of human NCI-H23 cells assessed as cell growth at 10 uM incubated for 48 hrs by sulforhodamine B assay relative to control
# [9] = tested on: NCI-H322M; test: Growth inhibition of human NCI-H322M cells assessed as cell growth at 10 uM incubated for 48 hrs by sulforhodamine B assay relative to control
# [10] = tested on: NCI-H522; test: Growth inhibition of human NCI-H522 cells assessed as cell growth at 10 uM incubated for 48 hrs by sulforhodamine B assay relative to control
# [11] = tested on: HCC 2998; test: Growth inhibition of human HCC 2998 cells assessed as cell growth at 10 uM incubated for 48 hrs by sulforhodamine B assay relative to control
# [12] = tested on: HCT-116; test: Growth inhibition of human HCT-116 cells assessed as cell growth at 10 uM incubated for 48 hrs by sulforhodamine B assay relative to control
# [13] = tested on: HCT-15; test: Growth inhibition of human HCT-15 cells assessed as cell growth at 10 uM incubated for 48 hrs by sulforhodamine B assay relative to control
# [14] = tested on: HT-29; test: Growth inhibition of human HT-29 cells assessed as cell growth at 10 uM incubated for 48 hrs by sulforhodamine B assay relative to control
# [15] = tested on: KM12; test: Growth inhibition of human KM12 cells assessed as cell growth at 10 uM incubated for 48 hrs by sulforhodamine B assay relative to control
# [16] = tested on: SW-620; test: Growth inhibition of human SW-620 cells assessed as cell growth at 10 uM incubated for 48 hrs by sulforhodamine B assay relative to control
# [17] = tested on: SF-268; test: Growth inhibition of human SF-268 cells assessed as cell growth at 10 uM incubated for 48 hrs by sulforhodamine B assay relative to control
# [18] = tested on: SF-539; test: Growth inhibition of human SF-539 cells assessed as cell growth at 10 uM incubated for 48 hrs by sulforhodamine B assay relative to control
# [19] = tested on: SNB-75; test: Growth inhibition of human SNB-75 cells assessed as cell growth at 10 uM incubated for 48 hrs by sulforhodamine B assay relative to control
# [20] = tested on: LOX IMVI; test: Growth inhibition of human LOX IMVI cells assessed as cell growth at 10 uM incubated for 48 hrs by sulforhodamine B assay relative to control
# [21] = tested on: M14; test: Growth inhibition of human M14 cells assessed as cell growth at 10 uM incubated for 48 hrs by sulforhodamine B assay relative to control
# [22] = tested on: SK-MEL-5; test: Growth inhibition of human SK-MEL-5 cells assessed as cell growth at 10 uM incubated for 48 hrs by sulforhodamine B assay relative to control
# [23] = tested on: UACC-257; test: Growth inhibition of human UACC-257 cells assessed as cell growth at 10 uM incubated for 48 hrs by sulforhodamine B assay relative to control
# [24] = tested on: IGROV-1; test: Growth inhibition of human IGROV-1 cells assessed as cell growth at 10 uM incubated for 48 hrs by sulforhodamine B assay relative to control
# [25] = tested on: OVCAR-3; test: Growth inhibition of human OVCAR-3 cells assessed as cell growth at 10 uM incubated for 48 hrs by sulforhodamine B assay relative to control
# [26] = tested on: OVCAR-5; test: Growth inhibition of human OVCAR-5 cells assessed as cell growth at 10 uM incubated for 48 hrs by sulforhodamine B assay relative to control
# [27] = tested on: OVCAR-8; test: Growth inhibition of human OVCAR-8 cells assessed as cell growth at 10 uM incubated for 48 hrs by sulforhodamine B assay relative to control
# [28] = tested on: NCI/ADR-RES; test: Growth inhibition of human NCI/ADR-RES cells assessed as cell growth at 10 uM incubated for 48 hrs by sulforhodamine B assay relative to control
# [29] = tested on: SK-OV-3; test: Growth inhibition of human SK-OV-3 cells assessed as cell growth at 10 uM incubated for 48 hrs by sulforhodamine B assay relative to control
# [30] = tested on: 786-0; test: Growth inhibition of human 786-0 cells assessed as cell growth at 10 uM incubated for 48 hrs by sulforhodamine B assay relative to control
# [31] = tested on: CAKI-1; test: Growth inhibition of human CAKI-1 cells assessed as cell growth at 10 uM incubated for 48 hrs by sulforhodamine B assay relative to control
# [32] = tested on: TK-10; test: Growth inhibition of human TK-10 cells assessed as cell growth at 10 uM incubated for 48 hrs by sulforhodamine B assay relative to control
# [33] = tested on: UO-31; test: Growth inhibition of human UO-31 cells assessed as cell growth at 10 uM incubated for 48 hrs by sulforhodamine B assay relative to control
# [34] = tested on: PC-3; test: Growth inhibition of human PC-3 cells assessed as cell growth at 10 uM incubated for 48 hrs by sulforhodamine B assay relative to control
# [35] = tested on: DU-145; test: Growth inhibition of human DU-145 cells assessed as cell growth at 10 uM incubated for 48 hrs by sulforhodamine B assay relative to control
# [36] = tested on: MCF7; test: Growth inhibition of human MCF7 cells assessed as cell growth at 10 uM incubated for 48 hrs by sulforhodamine B assay relative to control
# [37] = tested on: MDA-MB-231; test: Growth inhibition of human MDA-MB-231 cells assessed as cell growth at 10 uM incubated for 48 hrs by sulforhodamine B assay relative to control
# [38] = tested on: BT-549; test: Growth inhibition of human BT-549 cells assessed as cell growth at 10 uM incubated for 48 hrs by sulforhodamine B assay relative to control
# [39] = tested on: T47D; test: Growth inhibition of human T47D cells assessed as cell growth at 10 uM incubated for 48 hrs by sulforhodamine B assay relative to control
# [40] = tested on: MDA-MB-468; test: Growth inhibition of human MDA-MB-468 cells assessed as cell growth at 10 uM incubated for 48 hrs by sulforhodamine B assay relative to control
SMILES,growth at 10 µM [1] [%],growth at 10 µM [2] [%],growth at 10 µM [3] [%],growth at 10 µM [4] [%],growth at 10 µM [5] [%],growth at 10 µM [6] [%],growth at 10 µM [7] [%],growth at 10 µM [8] [%],growth at 10 µM [9] [%],growth at 10 µM [10] [%],growth at 10 µM [11] [%],growth at 10 µM [12] [%],growth at 10 µM [13] [%],growth at 10 µM [14] [%],growth at 10 µM [15] [%],growth at 10 µM [16] [%],growth at 10 µM [17] [%],growth at 10 µM [18] [%],growth at 10 µM [19] [%],growth at 10 µM [20] [%],further results
CC(=O)Nc1cccc(NC(=O)c2ccc(C(=O)Nc3cc(CO)cc(NC(C)=O)c3)cc2)c1,96.9,104,92.7,108,112,106,97.1,105,115,89.1,102,105,104,109,111,104,103,106,94.9,103,growth at 10 µM [21]: 101%; growth at 10 µM [22]: 103%; growth at 10 µM [23]: 101%; growth at 10 µM [24]: 110%; growth at 10 µM [25]: 126%; growth at 10 µM [26]: 108%; growth at 10 µM [27]: 106%; growth at 10 µM [28]: 113%; growth at 10 µM [29]: 103%; growth at 10 µM [30]: 112%; growth at 10 µM [31]: 111%; growth at 10 µM [32]: 98.8%; growth at 10 µM [33]: 100%; growth at 10 µM [34]: 101%; growth at 10 µM [35]: 117%; growth at 10 µM [36]: 93.3%; growth at 10 µM [37]: 110%; growth at 10 µM [38]: 116%; growth at 10 µM [39]: 86.2%; growth at 10 µM [40]: 110%
CCN(CC)CC(=O)Nc1cccc(C(=O)Nc2cc(CO)cc(NC(C)=O)c2)c1,105,105,111,103,120,96.9,95.7,98.4,117,93.8,95.8,99.6,103,103,110,115,113,98.7,91,98.7,growth at 10 µM [21]: 103%; growth at 10 µM [22]: 102%; growth at 10 µM [23]: 101%; growth at 10 µM [24]: 130%; growth at 10 µM [25]: 126%; growth at 10 µM [26]: 105%; growth at 10 µM [27]: 115%; growth at 10 µM [28]: 107%; growth at 10 µM [29]: 104%; growth at 10 µM [30]: 98.7%; growth at 10 µM [31]: 112%; growth at 10 µM [32]: 96.6%; growth at 10 µM [33]: 96.6%; growth at 10 µM [34]: 102%; growth at 10 µM [35]: 125%; growth at 10 µM [36]: 88.9%; growth at 10 µM [37]: 126%; growth at 10 µM [38]: 105%; growth at 10 µM [39]: 92.9%; growth at 10 µM [40]: 95.7%
CC(=O)Nc1cc(CO)cc(NC(=O)c2ccccc2)c1,85.6,110,98.7,100,103,104,115,50.8,110,97.9,97.8,105,107,109,116,106,103,111,122,99,growth at 10 µM [21]: 109%; growth at 10 µM [22]: 105%; growth at 10 µM [23]: 104%; growth at 10 µM [24]: 110%; growth at 10 µM [25]: 118%; growth at 10 µM [26]: 103%; growth at 10 µM [27]: 102%; growth at 10 µM [28]: 105%; growth at 10 µM [29]: 99.4%; growth at 10 µM [30]: 104%; growth at 10 µM [31]: 98.9%; growth at 10 µM [32]: 119%; growth at 10 µM [33]: 95.5%; growth at 10 µM [34]: 101%; growth at 10 µM [35]: 105%; growth at 10 µM [36]: 106%; growth at 10 µM [37]: 109%; growth at 10 µM [38]: 105%; growth at 10 µM [39]: 103%; growth at 10 µM [40]: 106%
